Consider one compound from patent US20140182011A1, “Methods Using Acyl-Coenzyme A-Binding Proteins to Enchance Drought Tolerance in Genetically Modified Plants” (The University of Hong Kong, priority 2011, published 2014).

One test has as its system ACBP2. As to the kind of experiment: qRT-PCR of ACBP2 expression after ABA treatment. The conditions noted are these: 12-day-old seedlings, ABA (100 µM), continuous white light. It counts as in vivo, Arabidopsis. Here is the method:
TRIzol® reagent was also used for RNA extraction of 12-day-old Arabidopsis seedlings subject to treatment by 100 μM ABA or drought for the various times (0, 1, 3, 6 and 24 h) under continuous white light. First-strand was synthesized using the Superscript First-Strand Synthesis System (Invitrogen). QRT-PCR was performed using StepOne Plus (Applied Biosystems) and FastStart Universal SYBR Green Master (Roche). Transcript changes were analyzed according to Schmittgen and Livak (Nat. Protoc. 3:1101-1108 (2008) from three independent experiments.
To determine the effect of ABA treatment on ACBP2 expression, the expression of ACBP2 was examined by Real-time quantitative PCR (qRT-PCR) using primers ML1122 and ML1123 (SEQ ID NOs: 1 and 2) in 12-day-old seedlings before and after ABA treatment under continuous white light. qRT-PCR was performed using StepOne Plus (Applied Biosystems) and FastStart Universal SYBR Green Master (Roche). Transcript changes were analyzed according to Schmittgen and Livak (Nat. Protoc. 3: 1101-1108 (2008) from three independent experiments.
(Quantitative PCR measures a nucleic acid by following its amplification.)

A further test has as its system Arabidopsis seeds. As to the kind of experiment: Seed germination with ABA treatment. It counts as in vivo. On the procedure:
To test ABA sensitivity at germination, over 200 seeds per experiment were sown on MS medium in the presence or absence of […] (Sigma-Aldrich, St Louis, Mo., USA). After 2 d at 4° C., seeds were germinated and grown under 16-hour-light (23° C.)/8-hour-dark (21° C.) cycles. Germination was examined daily with a microscope (Leica MZ6; Leica, Solms, Germany), and seedlings were photographed after 7 d. For post-germination growth assays, seeds were germinated on MS medium for 4 d, followed by transfer to MS medium or MS medium supplemented with […] for 7 d before photography and root measurements.

In the next test the test system is ACBP2pro:GUS. Briefly: Histochemical GUS assay during germination. Particulars: ABA treatment. It counts as in vivo, Arabidopsis. On the procedure:
Histochemical GUS assays were carried out using 5 bromo-4-chloro-3-indolyl-b-D-glucuronide (X-Glue) according to Liu et al., Plant Cell, 16: 5-20 (2004). Plant samples were immersed and vacuum filtrated in the GUS staining solution for 30 min (100 mM sodium phosphate buffer, pH 7.0, 0.1% Triton X-100, 2 mM potassium ferricyanide, 2 mM potassium ferrocyanide, 1 mg/mL 5 bromo-4-chloro-3-indolyl-β-D-glucuronide), incubated and observed over a period ranging from 3 to 16 h at 37° C. Subsequently, samples were cleared in 70% ethanol and photographed.

As to `CC1=CC(=O)CC(C)(C)[C@@]1(O)/C=C/C(C)=C\C(=O)O` [ABA, Abscisic acid], the “ACBP2 expression (qRT-PCR)” value in the test with ACBP2 was “significant induction”. Moreover, in the test with Arabidopsis seeds, the seed germination entry is “suppressed germination”. Moreover, the “GUS expression as germination progressed” value in the test with ACBP2pro:GUS is “retained GUS expression”.
